# According to patent publication US12016874B2, “Methods and compositions for treating carbapenem-resistant klebsiella pneumoniae infections” (City University of Hong Kong, priority 2022, dated 2024):
# Read-outs that look alike come from different tables or passages of the source.
# What was measured:
# [1] = tested on: K. pneumoniae MGH78578; assay: MIC determination according to CLSI guidelines; type: cell-based; settings: Klebsiella pneumoniae, drug alone
# Protocol: (§1) Bacterial strains grown on MH agar plates were resuspended in sterilized 0.85% sodium chloride solution. […] All tested culture media were finally cultured at 37° C. for 16 hours. E. coli ATCC25922 and K. pneumoniae MGH78578 in Table 1 were used as reference control bacteria.
# (§2) See Table 2 and Table 2-1 below for details.
# [2] = tested on: E. coli ATCC25922; assay: MIC determination according to CLSI guidelines; type: cell-based; settings: Escherichia coli, drug alone
# Protocol: as §1, §2
# [3] = tested on: 16ZR-33; assay: MIC determination according to CLSI guidelines; type: cell-based, K. pneumoniae; settings: Klebsiella pneumoniae, drug alone
# Protocol: as §1, §2
# [4] = tested on: 14WZ-44; assay: MIC determination according to CLSI guidelines; type: cell-based, K. pneumoniae; settings: Klebsiella pneumoniae; 14WZ-44 (CRKP); drug alone
# Protocol: as §1, §2
# [5] = tested on: 14WZ-43; assay: MIC determination according to CLSI guidelines; type: cell-based, K. pneumoniae; settings: Klebsiella pneumoniae, drug alone
# Protocol: as §1, §2
# [6] = tested on: CR-HvKP 2; assay: MIC determination according to CLSI guidelines; type: cell-based, K. pneumoniae; settings: Klebsiella pneumoniae, drug alone
# Protocol: as §1, §2
# [7] = tested on: CR-HvKP 5; assay: MIC determination according to CLSI guidelines; type: cell-based, K. pneumoniae; settings: Klebsiella pneumoniae, drug alone
# Protocol: as §1, §2
# [8] = tested on: 17ZR-31; assay: MIC determination according to CLSI guidelines; type: cell-based, K. pneumoniae; settings: Klebsiella pneumoniae, drug alone
# Protocol: as §1, §2
# [9] = tested on: 17ZR-75; assay: MIC determination according to CLSI guidelines; type: cell-based, K. pneumoniae; settings: Klebsiella pneumoniae, drug alone
# Protocol: as §1, §2
# [10] = tested on: 16WZ-134; assay: MIC determination according to CLSI guidelines; type: cell-based, K. pneumoniae; settings: Klebsiella pneumoniae, drug alone
# Protocol: as §1, §2
# [11] = tested on: CR-HvKP 1; assay: MIC determination according to CLSI guidelines; type: cell-based, K. pneumoniae; settings: Klebsiella pneumoniae, drug alone
# Protocol: as §1, §2
# [12] = tested on: 14WZ-52; assay: MIC determination according to CLSI guidelines; type: cell-based, K. pneumoniae; settings: Klebsiella pneumoniae, drug alone
# Protocol: as §1, §2
# [13] = tested on: 16ZR-93; assay: MIC determination according to CLSI guidelines; type: cell-based, K. pneumoniae; settings: Klebsiella pneumoniae, drug alone
# Protocol: as §1, §2
# [14] = tested on: CR-HvKP 3; assay: MIC determination according to CLSI guidelines; type: cell-based, K. pneumoniae; settings: Klebsiella pneumoniae, drug alone
# Protocol: as §1, §2
# [15] = tested on: 16ZR-10; assay: MIC determination according to CLSI guidelines; type: cell-based, K. pneumoniae; settings: Klebsiella pneumoniae, drug alone
# Protocol: as §1, §2
# [16] = tested on: 14WZ-51; assay: MIC determination according to CLSI guidelines; type: cell-based, K. pneumoniae; settings: Klebsiella pneumoniae, drug alone
# Protocol: as §1, §2
# [17] = tested on: 16ZR-58; assay: MIC determination according to CLSI guidelines; type: cell-based, K. pneumoniae; settings: Klebsiella pneumoniae, drug alone
# Protocol: as §1, §2
# [18] = tested on: 17ZR-63; assay: MIC determination according to CLSI guidelines; type: cell-based, K. pneumoniae; settings: Klebsiella pneumoniae, drug alone
# Protocol: as §1, §2
# [19] = tested on: 15WZ-88; assay: MIC determination according to CLSI guidelines; type: cell-based, K. pneumoniae; settings: Klebsiella pneumoniae, drug alone
# Protocol: as §1, §2
# [20] = tested on: 17ZR-61; assay: MIC determination according to CLSI guidelines; type: cell-based, K. pneumoniae; settings: Klebsiella pneumoniae, drug alone
# Protocol: as §1, §2
# [21] = tested on: 15WZ-68; assay: MIC determination according to CLSI guidelines; type: cell-based, K. pneumoniae; settings: Klebsiella pneumoniae, drug alone
# Protocol: as §1, §2
# [22] = tested on: 14WZ-45; assay: MIC determination according to CLSI guidelines; type: cell-based, K. pneumoniae; settings: Klebsiella pneumoniae, drug alone
# Protocol: as §1, §2
# [23] = tested on: CR-HvKP 1; settings: for Viability (%): CR-HvKP 1 infected ICR mice; for mortality rate of mice: oral gavage every 12 hours
# Protocol: The ICR mice were injected with 3×10^7 CFU of CR-HvKP 1 intraperitoneally to create sepsis infection models.
# [24] = tested on: red blood cells (RBCs)
# Protocol: In-vitro method: Hemolysis experiment: The blood from fresh ICR mice was collected by cardiac blood withdrawal, preserved in K2-EDTA tubes (BD Vacultainer® K2 EDTA, Becton-Dickinson) and temporarily stored at 4° C. The whole blood sample was centrifuged (500 g, 10 minutes) to remove plasma, and then washed three times with PBS buffer. After the last washing, 100 μL of the remaining red blood cells (RBCs) were carefully aspirated from the bottom and diluted with 4.9 mL PBS buffer to prepare a 2% blood solution. […] 50 μL of diluted RBCs were mixed with 100 μL of milli-Q H20 (100% hemolysis) or 100 μL of drug-free PBS as positive and negative controls, respectively. It should be noted that rifampicin itself was red, so the absorbance of PBS with different concentrations of the drug was used as background correction in the calculation. The mixture was mixed gently and incubated at 37° C. for 30 minutes. 80 μL of supernatant was obtained by centrifugation at 2000×g for 6 minutes, and the optical density of the supernatant at 541 nm was measured with a microplate reader (SpectraMax 190, Moleclar Devices).
# [25] = tested on: CR-HvKP 1; assay: microbe, parasite or virus in culture; type: cell-based, K. pneumoniae; settings: Klebsiella pneumoniae, read-out: MIC after serial passage with incremental drug concentrations
# Protocol: The principle of this experiment is that sub-inhibitory concentrations of antibiotics will induce drug-resistant mutations of bacteria.
# Materials and methods: CR-HvKP 1 was selected as the representative strain. […] After 24 hours of culture, the culture possibly containing drug-resistant mutant bacteria was diluted 1:100 into fresh LB medium containing 2-fold concentration of drugs. This continuous transfer was repeated for six generations, i.e. the experiment was conducted for six days (the concentration on the second day was twice that on the first day, with daily increment).
# [26] = tested on: HepG2 cells; assay: MTT experiment; settings: MTT assay
# [27] = tested on: P. aeruginosa; assay: Screening of FDA-approved drug library; type: cell-based; settings: drug library screen
# [28] = target: T1, K. pneumoniae RNA polymerase (Klebsiella pneumoniae subsp. pneumoniae, UniProt A6TGP0+A6TGP1); assay: ITC assay; type: binding; settings: 25° C.
# T1 construct: made in house; host or cells: E. coli BL21(DE3)
# T1 sequence (A6TGP1 whole entry): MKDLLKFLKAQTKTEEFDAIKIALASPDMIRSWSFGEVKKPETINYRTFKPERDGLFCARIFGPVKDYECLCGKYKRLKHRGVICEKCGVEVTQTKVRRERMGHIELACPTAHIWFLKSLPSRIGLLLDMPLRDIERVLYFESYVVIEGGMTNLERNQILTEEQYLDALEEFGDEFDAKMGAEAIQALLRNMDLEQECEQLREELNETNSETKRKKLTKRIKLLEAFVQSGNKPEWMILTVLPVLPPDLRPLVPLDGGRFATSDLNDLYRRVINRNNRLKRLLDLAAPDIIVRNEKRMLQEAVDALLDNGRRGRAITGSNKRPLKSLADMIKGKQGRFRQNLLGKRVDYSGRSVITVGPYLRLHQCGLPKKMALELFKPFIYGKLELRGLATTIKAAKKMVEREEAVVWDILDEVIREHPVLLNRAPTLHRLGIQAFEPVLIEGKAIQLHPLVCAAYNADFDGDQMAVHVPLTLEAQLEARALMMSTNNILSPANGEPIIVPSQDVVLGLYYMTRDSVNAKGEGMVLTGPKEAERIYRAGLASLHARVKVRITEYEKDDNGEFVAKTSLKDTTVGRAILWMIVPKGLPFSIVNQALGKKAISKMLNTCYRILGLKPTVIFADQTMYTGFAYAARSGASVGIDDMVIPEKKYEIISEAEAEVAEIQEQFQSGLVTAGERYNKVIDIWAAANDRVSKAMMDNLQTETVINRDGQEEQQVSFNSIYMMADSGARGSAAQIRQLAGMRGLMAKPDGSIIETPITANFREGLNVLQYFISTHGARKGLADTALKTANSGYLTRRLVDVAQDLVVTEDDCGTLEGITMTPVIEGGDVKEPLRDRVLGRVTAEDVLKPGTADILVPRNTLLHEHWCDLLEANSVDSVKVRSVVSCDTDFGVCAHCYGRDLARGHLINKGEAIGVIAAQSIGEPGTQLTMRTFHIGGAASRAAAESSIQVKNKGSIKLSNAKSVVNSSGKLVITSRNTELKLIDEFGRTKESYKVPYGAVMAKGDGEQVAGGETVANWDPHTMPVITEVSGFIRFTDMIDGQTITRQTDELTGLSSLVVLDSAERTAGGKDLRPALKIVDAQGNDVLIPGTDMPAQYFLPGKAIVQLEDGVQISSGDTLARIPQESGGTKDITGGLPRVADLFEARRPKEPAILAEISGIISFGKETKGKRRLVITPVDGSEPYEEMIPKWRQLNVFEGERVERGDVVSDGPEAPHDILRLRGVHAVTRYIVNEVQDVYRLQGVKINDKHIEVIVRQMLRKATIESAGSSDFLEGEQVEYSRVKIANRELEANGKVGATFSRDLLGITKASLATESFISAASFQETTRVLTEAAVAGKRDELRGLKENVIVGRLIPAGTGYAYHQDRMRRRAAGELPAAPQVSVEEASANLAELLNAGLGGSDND
# T1 sequence (A6TGP0 whole entry): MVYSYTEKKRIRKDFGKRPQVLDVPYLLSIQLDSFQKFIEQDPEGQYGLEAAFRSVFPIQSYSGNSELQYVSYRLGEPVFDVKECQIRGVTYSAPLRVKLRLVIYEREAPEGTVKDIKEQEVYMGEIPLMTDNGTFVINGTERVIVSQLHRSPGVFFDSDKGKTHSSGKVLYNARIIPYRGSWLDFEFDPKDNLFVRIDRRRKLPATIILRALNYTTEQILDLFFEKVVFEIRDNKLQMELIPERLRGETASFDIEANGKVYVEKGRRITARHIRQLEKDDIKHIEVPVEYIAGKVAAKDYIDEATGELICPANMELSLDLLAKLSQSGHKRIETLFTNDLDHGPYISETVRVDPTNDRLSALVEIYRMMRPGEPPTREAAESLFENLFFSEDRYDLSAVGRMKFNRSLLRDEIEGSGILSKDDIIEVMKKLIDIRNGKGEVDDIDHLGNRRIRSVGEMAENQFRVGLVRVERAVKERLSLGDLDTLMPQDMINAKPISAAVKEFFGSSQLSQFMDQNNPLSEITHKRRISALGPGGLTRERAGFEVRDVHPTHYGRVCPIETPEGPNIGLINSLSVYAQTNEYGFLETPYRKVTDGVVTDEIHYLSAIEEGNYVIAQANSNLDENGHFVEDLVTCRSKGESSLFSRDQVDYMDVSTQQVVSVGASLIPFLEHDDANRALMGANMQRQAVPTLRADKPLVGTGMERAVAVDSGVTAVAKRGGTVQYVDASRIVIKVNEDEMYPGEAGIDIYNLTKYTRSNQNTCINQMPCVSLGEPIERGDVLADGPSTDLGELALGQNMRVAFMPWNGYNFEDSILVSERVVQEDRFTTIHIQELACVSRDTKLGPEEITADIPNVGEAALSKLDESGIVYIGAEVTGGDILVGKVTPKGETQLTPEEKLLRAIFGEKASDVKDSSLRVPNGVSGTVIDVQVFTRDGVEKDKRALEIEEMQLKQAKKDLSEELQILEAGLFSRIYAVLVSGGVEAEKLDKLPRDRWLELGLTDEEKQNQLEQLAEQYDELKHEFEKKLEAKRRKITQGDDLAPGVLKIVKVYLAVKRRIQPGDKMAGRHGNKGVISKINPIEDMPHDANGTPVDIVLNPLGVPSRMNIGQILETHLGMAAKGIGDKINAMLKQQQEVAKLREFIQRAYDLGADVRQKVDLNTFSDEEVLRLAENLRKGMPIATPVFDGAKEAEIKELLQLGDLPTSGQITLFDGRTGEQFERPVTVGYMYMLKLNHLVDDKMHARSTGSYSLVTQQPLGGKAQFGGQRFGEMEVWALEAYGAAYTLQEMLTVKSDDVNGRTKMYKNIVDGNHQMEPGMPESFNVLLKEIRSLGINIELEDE
# T1 sequence (A6TEU8 whole entry, further chain): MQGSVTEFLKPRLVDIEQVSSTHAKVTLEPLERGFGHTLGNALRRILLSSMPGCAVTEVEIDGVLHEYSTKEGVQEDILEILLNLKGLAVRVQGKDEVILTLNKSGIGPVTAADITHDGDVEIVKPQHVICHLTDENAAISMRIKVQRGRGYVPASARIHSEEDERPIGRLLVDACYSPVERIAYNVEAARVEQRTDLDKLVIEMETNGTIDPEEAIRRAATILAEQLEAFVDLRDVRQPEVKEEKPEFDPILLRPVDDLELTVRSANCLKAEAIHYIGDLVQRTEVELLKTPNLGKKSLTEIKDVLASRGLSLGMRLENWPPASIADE
# Excerpt: We successfully co-expressed the subunits of K. pneumoniae RNAp to prepare the required core enzyme by a dual plasmids expression system, pACYC-Duet and pET-Duet. The method is briefly described as follows:
# Recombinant plasmids containing different subunits of RNAP (rpoA, rpoB, rpoC, rpoD, rpoZ) were constructed using the Gibson assembly method. First, all the required fragments were obtained by PCR amplification from the K. pneumoniae MGH78578 genome and two Duet plasmids, respectively. All fragments, Gibson Assembly Master Mix (NEB, #E2611S) and deionized water were then mixed and incubated at 50° C. for 60 minutes. The recombinant plasmids were transformed into E. coli DH5α by heat shock method. After verification via sequencing, the recombinant plasmids were then transformed into E. coli BL21(DE3). Plasmids pACYC Duet rpoA-rpoZ-Amp (encoding […]) and pET Duet rpoB-rpoC-Kana (encoding β and β′ subunits) were transformed together into E. coli BL21 to prepare RNA core polymerase by in vivo assembly. The σ factor σ subunit was obtained by overexpression of E. coli BL21 containing the plasmid pET-Duet-rpoD-Kana alone. The recombinant bacteria were first cultured in LB agar containing 50 μg/mL of kanamycin and 100 μg/mL of ampicillin and then inoculated into LB broth containing the same concentration of antibiotics at 37° C., 250 rpm. After the bacterial turbidity reached an OD600 of 0.6, 0.5 mM IPTG was added and cultured at 16° C., 200 rpm for 16 hours. Cells were harvested by centrifugation (5000 rpm, 20 minutes at 4° C.). The protein was then purified by affinity chromatography. To further obtain bacterial RNAp holoenzyme, RNAp core enzyme was incubated with sigma subunits at a molar ratio of 1:1 at 37° C. for 15 minutes and then used for subsequent ITC assays.
# The test was performed at 25° C. using a Malvern MicroCal PEAQ-ITC automatic ultrasensitive isothermal titration calorimeter (MicroCal (Malvern Instruments), Malvern, UK). […] The solution was stirred at 750 rpm. MicroCal PEAQ-ITC analysis software was used to fit the data to a one site binding model.
# [29] = tested on: CR-HvKP 1; assay: Mucoviscosity assay; type: cell-based, K. pneumoniae; settings: drug alone, OD600 of supernatant
# Protocol: 2. Mucoviscosity assay: The overnight culture of CR-HvKP 1 was re-inoculated into fresh LB broth to produce a bacterial broth with an OD600 of 0.3. Different drugs were then added and cultured with shaking at 37° C. for 6 hours. The culture was then diluted to an OD600 of 1.0 and centrifuged at 1,000×g for 2 minutes before the supernatant was obtained for OD600 measurement.
# [30] = tested on: E. coli; assay: Screening of FDA-approved drug library; type: cell-based; settings: drug library screen
# [31] = tested on: CR-HvKP 1; assay: String test on sheep blood agar; type: cell-based, K. pneumoniae; settings: drug alone
# Protocol: 1. A series of tests were performed according to the following process. CR-HvKP 1 was inoculated onto the agar plate containing 5% sheep blood and different drugs and cultured overnight at 37° C. The series test refers to a test in which viscous strings greater than 5 mm in length are formed when a single colony is stretched with a standard bacteriological inoculating loop, which can be considered a virulent strain of a high-viscosity phenotype.
# [32] = tested on: K. pneumoniae; assay: Screening of FDA-approved drug library; type: cell-based; settings: drug library screen
# [33] = tested on: CR-HvKP 1; settings: 20 μg/mL zidovudine
# [34] = tested on: rmpA2; assay: Virulence gene expression by qRT-PCR; type: cell-based, K. pneumoniae; settings: drug alone
SMILES,MIC [1],MIC [2],MIC [3],MIC [4],MIC [5],MIC [6],MIC [7],MIC [8],MIC [9],MIC [10],MIC [11],MIC [12],MIC [13],MIC [14],MIC [15],MIC [16],MIC [17],MIC [18],MIC [19],MIC [20],further results
CO[C@H]1/C=C/O[C@@]2(C)Oc3c(C)c(O)c4c(O)c(c(/C=N/N5CCN(C)CC5)c(O)c4c3C2=O)NC(=O)/C(C)=C\C=C\[C@H](C)[C@H](O)[C@@H](C)[C@@H](O)[C@@H](C)[C@H](OC(C)=O)[C@@H]1C [rifampicin],32 µg/mL,8 µg/mL,16 µg/mL,32 µg/mL,32 µg/mL,32 µg/mL,32 µg/mL,32 µg/mL,64 µg/mL,32 µg/mL,32 µg/mL,32 µg/mL,> 64 µg/mL,32 µg/mL,32 µg/mL,32 µg/mL,32 µg/mL,32 µg/mL,16 µg/mL,32 µg/mL,"MIC [21]: 32 µg/mL; MIC [22]: 16 µg/mL; Viability (%) ([23]; ZDV 0 mg/kg + RIF 8 mg/kg): 30%; mortality rate of mice ([23]; rifampicin 8 mg/kg only, in 72 hours): 66%; hemolysis [24]: low level; MIC [25]: 4100 µg/mL; HepG2 cell lysis [26]: low level"
Cc1cn([C@H]2C[C@H](N=[N+]=[N-])[C@@H](CO)O2)c(=O)[nH]c1=O [zidovudine],5 µg/mL,0.625 µg/mL,5 µg/mL,2.5 µg/mL,2.5 µg/mL,2.5 µg/mL,5 µg/mL,2.5 µg/mL,5 µg/mL,> 20 µg/mL,2.5 µg/mL,1.25 µg/mL,> 20 µg/mL,2.5 µg/mL,0.625 µg/mL,2.5 µg/mL,2.5 µg/mL,1.25 µg/mL,2.5 µg/mL,1.25 µg/mL,"antibacterial effect [27]: exhibited antibacterial effect; enthalpy (ΔH) [28]: -80.1 ± 124 kcal/mol; reaction stoichiometry (N sites) [28]: 0.239±0.273; Kd ([28]; one site binding model): 7.8 µM; MIC [21]: 2.5 µg/mL; MIC [22]: 2.5 µg/mL; Viability (%) ([23]; ZDV 10 mg/kg + RIF 0 mg/kg): 0%; mortality rate of mice ([23]; zidovudine 10 mg/kg only, in 36 hours): 100%; hypermucoviscosity [29]: reduce; antibacterial effect [30]: exhibited antibacterial effect; string length [31]: reduce; antibacterial effect [32]: exhibited antibacterial effect; MIC [25]: 1280 µg/mL; population size of CR-HvKP 1 in time-kill curve [33]: reduced in the first 4 hours and then re-grew to reach the same size as no treatment control at 24 hours; expression of bacterial virulence factor rmpA2 [34]: inhibition; HepG2 cell lysis [26]: low level"
